# Measured values taken from publication PMC10300102, “In vivo inhibition of nuclear ACE2 translocation protects against SARS-CoV-2 replication and lung damage through epigenetic imprinting” (Nature Communications, 2023).
# Where a SMILES comes first, the peptide text is derived from it. The star is where a group is joined. Myristoyl = CCCCCCCCCCCCCC(=O)*
# Tested on: SARS-CoV-2 ORF1ab and host gene expression
# Details: hamster, in vivo
smiles,measurement,value
CCCCCCCCCCCCCC(=O)N[C@H](C(=O)NCC(=O)N[C@H](C(=O)N[C@@H](CCCNC(=N)N)C(=O)N[C@@H](CC(=O)O)C(=O)N[C@@H](CCCNC(=N)N)C(=O)N[C@@H](CCCCN)C(=O)N[C@@H](CCCCN)C(=O)N[C@@H](CCCCN)C(=O)N[C@@H](CC(N)=O)C(=O)N[C@@H](CCCCN)C(=O)N[C@@H](C)C(=O)N[C@@H](CCCNC(=N)N)C(=O)N[C@@H](CO)C(=O)O)[C@@H](C)CC)[C@@H](C)O [NACE2i] (Myristoyl-TGIRDRKKKNKARS-OH),FC gene Cyp4v3,0.2095
same,FC gene ORF1ab,-2.2037
same,FC gene S,-2.258
same,"FC, gene 2410004B18Rik",0.5678
same,"FC, gene 4932438A13Rik",0.5459
same,"FC, gene Acat3",-0.674
same,"FC, gene Acly",-0.5062
same,"FC, gene Adnp2",0.5468
same,"FC, gene Aen",0.6316
same,"FC, gene Aff4",0.6064
same,"FC, gene Ahcy",-0.9648
same,"FC, gene Akap13",0.5493
same,"FC, gene Ankrd17",0.6698
same,"FC, gene Ap1s1",-0.5707
same,"FC, gene Ap3d1",0.5083
same,"FC, gene Aplnr",0.5871
same,"FC, gene Arhgap23",0.8043
same,"FC, gene Asph",-0.5094
same,"FC, gene Atf1",0.5582
same,"FC, gene Bbs4",0.6922
same,"FC, gene Bnip1",0.513
same,"FC, gene Btn1a1",0.5761
same,"FC, gene C2",2.567
same,"FC, gene Ccdc115",-0.5047
same,"FC, gene Ccr7",0.5204
same,"FC, gene Cdk4",-0.5201
same,"FC, gene Chd8",1.187
same,"FC, gene Chpt1",-0.6745
same,"FC, gene Ciao2a",-0.5045
same,"FC, gene Clcn7",0.7305
same,"FC, gene Cldn10",-0.6712
same,"FC, gene Clec2j",-0.5841
same,"FC, gene Cuedc1",-0.5402
same,"FC, gene Cyp4a32",0.9236
same,"FC, gene Cyth4",0.5449
same,"FC, gene D8Ertd738e",-0.5566
same,"FC, gene Dcps",0.5089
same,"FC, gene Ddx3x",0.6643
same,"FC, gene Ddx17",-0.6263
same,"FC, gene Ddx50",0.5809
same,"FC, gene Dnajb1",1.307
same,"FC, gene Dnajb4",0.8217
same,"FC, gene Dusp6",0.7087
same,"FC, gene Dusp8",0.9914
same,"FC, gene Edem2",-0.5407
same,"FC, gene Efcab6",-0.6582
same,"FC, gene Efhc2",0.6406
same,"FC, gene Efl1",0.5009
same,"FC, gene Egr2",1.468
same,"FC, gene Epb41l2",0.503
same,"FC, gene Epb41l4b",-0.6555
same,"FC, gene Epc1",0.5651
same,"FC, gene Erfl",0.7342
same,"FC, gene Fam210b",-0.5004
same,"FC, gene Fbxo34",0.5562
same,"FC, gene Fer1l4",0.5763
same,"FC, gene Fgfr2",-0.6329
same,"FC, gene Fnip1",1.067
same,"FC, gene Foxa1",-0.5875
same,"FC, gene Foxo4",-0.5985
same,"FC, gene Foxp1",0.7638
same,"FC, gene Frk",-0.5985
same,"FC, gene Fscn1",0.6051
same,"FC, gene Gadd45gip1",-0.6021
same,"FC, gene Galnt16",0.5879
same,"FC, gene Gcdh",-0.6082
same,"FC, gene Get3",-0.5368
same,"FC, gene Gm6760",-0.5229
same,"FC, gene Gm19935",0.6161
same,"FC, gene Gm36327",0.5888
same,"FC, gene Gpr108",-0.6108
same,"FC, gene Grcc10",-0.632
same,"FC, gene Gstm5",-0.5595
same,"FC, gene Hbs1l",0.5826
same,"FC, gene Hcfc2",0.539
same,"FC, gene Hddc3",-0.6233
same,"FC, gene Hes1",0.7365
same,"FC, gene Hes7",0.6772
same,"FC, gene Hnrnph3",0.5781
same,"FC, gene Hspa1a",3.192
same,"FC, gene Hspb8",0.5876
same,"FC, gene Ints1",-0.5112
same,"FC, gene Ints6",0.5796
same,"FC, gene Irgm2",0.8053
same,"FC, gene Itm2c",-0.5859
same,"FC, gene Josd2",-0.5145
same,"FC, gene Kcnb2",0.5599
same,"FC, gene Kdm2b",0.8792
same,"FC, gene Klf2",0.591
same,"FC, gene Klf6",1.611
same,"FC, gene Krcc1",-0.5435
same,"FC, gene Ldhb",0.9545
same,"FC, gene Lrch4",0.6982
same,"FC, gene Mat2b",-0.5576
same,"FC, gene Mcl1",0.7457
same,"FC, gene Mff",-0.5195
same,"FC, gene Mpnd",-0.5935
same,"FC, gene Mrgprb13",0.5244
same,"FC, gene Mrpl18",-0.5015
same,"FC, gene Msantd1",0.7207
same,"FC, gene Myo6",-0.795
same,"FC, gene Myoz2",-0.6449
same,"FC, gene Ndufc2",-0.5355
same,"FC, gene Nfat5",0.6106
same,"FC, gene Nfyc",0.5405
same,"FC, gene Nlrp9c",0.6509
same,"FC, gene Nr1d1",0.7307
same,"FC, gene Nr6a1",0.5193
same,"FC, gene Nrg1",1.2298
same,"FC, gene ORF1ab_REV",1.502
same,"FC, gene Olfr229",0.6277
same,"FC, gene Olfr648",0.5798
same,"FC, gene Olfr992",0.5742
same,"FC, gene Olfr1246",0.5289
same,"FC, gene Oser1",0.5067
same,"FC, gene Papss2",0.7496
same,"FC, gene Parp4",0.5117
same,"FC, gene Paxx",0.5674
same,"FC, gene Pcdh10",0.5344
same,"FC, gene Pcf11",0.7986
same,"FC, gene Pga5",0.5011
same,"FC, gene Pias3",-0.5192
same,"FC, gene Pigb",0.6695
same,"FC, gene Pllp",-0.5323
same,"FC, gene Ppargc1a",2.4524
same,"FC, gene Ppil3",0.791
same,"FC, gene Ppp1r10",1.995
same,"FC, gene Ppp2r1a",-0.5051
same,"FC, gene Prpsap1",-0.5066
same,"FC, gene Ptprf",-0.5908
same,"FC, gene Pum1",0.5225
same,"FC, gene Rac3",-0.6773
same,"FC, gene Ranbp3",0.6534
same,"FC, gene Rapgef6",0.5765
same,"FC, gene Rasgrp2",0.6502
same,"FC, gene Rbm39",0.6181
same,"FC, gene Rel",0.5472
same,"FC, gene Rnd1",2.009
same,"FC, gene Rora",0.5709
same,"FC, gene Rps6ka4",-0.6146
same,"FC, gene Rsad1",0.5304
same,"FC, gene Rtf2",0.5373
same,"FC, gene Rusf1",-0.6909
same,"FC, gene S",7.077
same,"FC, gene Samd11",0.6285
same,"FC, gene Sdf4",0.5035
same,"FC, gene Sema4f",1.3449
same,"FC, gene Serhl",1.282
same,"FC, gene Serpinb9f",0.5421
same,"FC, gene Serpinf1",0.5919
same,"FC, gene Sfpq",0.8832
same,"FC, gene Sftpd",-0.8403
same,"FC, gene Skil",0.9649
same,"FC, gene Slc8a2",0.6877
same,"FC, gene Slc25a1",-0.8686
same,"FC, gene Slc25a45",1.7301
same,"FC, gene Snrnp70",-0.5232
same,"FC, gene Socs2",1.6268
same,"FC, gene Sqle",-0.5283
same,"FC, gene St7",0.6724
same,"FC, gene Stc1",-0.7739
same,"FC, gene Sult1a1",-0.5479
same,"FC, gene Tcp11l2",-0.5998
same,"FC, gene Tecr",-0.5713
same,"FC, gene Tmbim6",-0.5766
same,"FC, gene Tmem35b",1.27
same,"FC, gene Tnfrsf12a",0.714
same,"FC, gene Tpgs1",-0.5572
same,"FC, gene Tra2b",1.01
same,"FC, gene Tspan12",-0.8782
same,"FC, gene Ttll8",-0.5897
same,"FC, gene Twist1",0.5929
same,"FC, gene Urah",-0.7905
same,"FC, gene Vpreb1",0.5028
same,"FC, gene Vtcn1",-0.6235
same,"FC, gene Xpo4",0.7242
same,"FC, gene Ybey",0.5779
same,"FC, gene Ypel3",-0.854
same,"FC, gene Zbtb10",0.9542
same,"FC, gene Zdhhc18",0.5354
same,"FC, gene Zfp68",0.8041
same,"NEC, Autophagy",-1.884
same,"NEC, Biological oxidations",-2.307
same,"NEC, COPI-mediated anterograde transport",-2.085
same,"NEC, Cilium Assembly",-1.905
same,"NEC, ER to Golgi Anterograde Transport",-1.892
same,"NEC, Macroautophagy",-1.884
same,"NEC, Organelle biogenesis and maintenance",-2.083
same,"NEC, The citric acid (TCA) cycle and respiratory electron transport",-2.083
same,expression of SARS-CoV-2 ORF1ab,significantly reduced
same,top 20 genes in the TLR4 pathway,downregulated
same,viral ORF1ab and S genes in alveoli,significantly downregulated
